{"source": "patent US3995061A", "about": "“Pharmaceutical composition and method of using the same” (Chugai Seiyaku Kabushiki Kaisha, priority 1974, dated 1976)", "key": {"Cholesterol in serum": {"system": "Cholesterol in serum", "assay": "Serum cholesterol lowering activity in rats on high-fat feed, single oral dose", "assay_type": "in vivo, Wister-Imamich strain male rats", "details": "rat, 75 mg/kg oral, 6 hours after administration", "text": "The cholesterol lowering activity of the ascochlorin derivatives of this invention was observed by the use of Wister-Imamich strain male rats weighing 230 ± 30 g which had been bred with the use of high-fat feed comprising 1000 g of powdery chow CLEA CE-2 (sold by NIHON CLEA KABUSHIKI KAISHA) admixed with 10 g of cholesterol, 95 g of hydrogenated coconut oil, 2 g of cholic acid, 150 g of milk casein and 671 g of sucrose.\nThe rats were divided into groups of five members each, and orally administered with a different ascochlorin derivative as a suspension in gum arabic aqueous solution in a dose of 75 mg/kg.body weight. The rats were kept from eating food, and 6 hours after the administration, the blood of each rat was sampled from its heart. The total amount of cholesterol in serum was determined by a modified Zurkowski method (Clinical Chemistry, 10, 451, 1964) with the use of a colorimeter for blood analysis (sold by KYOTO DAIICHI KAGAKU)."}, "blood platelet": {"system": "blood platelet", "assay": "Aggregation inhibition activity of blood platelet (ADP-induced, platelet rich plasma of orally dosed rats)", "assay_type": "in vivo, Wister-Imamich strain male rats", "details": "rat, 20 mg/kg oral, 6 hours; adenosine-5'-diphosphate 10^-5 M in platelet rich plasma", "method": "In this Example Wister-Imamich strain male rats weighing 230 ± 30 g which had been bred with the use of a commercial chow, CLEA CE-2 were used.\nThe rats were divided into groups of five members each, and orally administered with a different ascochlorin derivative as a suspension in 2% gum arabic aqueous solution in a dose of 20 mg/kg.body weight. Six hours after the administration, the blood of each rat was sampled from the heart and after the addition of citric acid, the blood sample was centrifuged at 1,500 r.p.m. for 10 minutes to obtain platelet rich plasma. The anti-aggregation effect when the concentration of adenosine-5'-diphosphatein the platelet rich plasma is ultimately 10^^-5 M is shown in Table II.\nAs positive controls, ascochlorin, ethyl-α-(p-chlorophenoxy) isobutylate and acetyl salicyclic acid were used. The aggregation inhibition ratio was evaluated in percent by comparing the increase of transmission rate caused by the addition of adenosin-5'-diphosphate to platelet rich plasma of the control group (no medication) with that caused on the groups administered with an ascochlorin derivative which is calculated for 100."}, "Serum Lipid": {"system": "Serum Lipid", "assay": "Hypolipidemic activity: change in level of serum lipid, 30 days, high-fat feed", "assay_type": "in vivo, Wister strain rats", "details": "rat"}, "Lipid in liver and aorta": {"system": "Lipid in liver and aorta", "assay": "Hypolipidemic activity: change of lipid level in organs and aorta abdominalis, 30 days, high-fat feed", "assay_type": "in vivo, Wister strain rats", "details": "rat, 45.0 mg/kg oral", "method": "Wister strain rats weighing 150 ± 20 g were divided into groups of 10 members each and bred with high-fat feed, the same as that used in Example 1. The rats were orally administered ascochlorin, 4-O-methylascochlorin or ethyl-α-(p-chlorophenoxy) isobutylate in a predetermined dose every morning for 30 days. Six hours after the last administration, liver and aorta of each rat were taken out and lipid level in the organs of each of the rats were determined. Lipid present in the liver and aorta was extracted with methanol-chloroform (1:1) by allowing it to stand overnight and the extract was assayed as to lipid level."}, "[1]": {"details": "45.0 mg/kg oral, average ± standard error"}}, "data": [{"smiles": "CCCOc1c(Cl)c(C)c(C=O)c(O)c1C/C=C(C)/C=C/C1(C)C(C)CCC(=O)C1C", "note": "(stereo not drawn) [4-O-n-propylascochlorin]", "values": [{"measurement": "Cholesterol in serum", "setting": "Cholesterol in serum", "result": 84.3, "unit": "mg/dL"}, {"measurement": "Aggregation Inhibition Ratio", "setting": "blood platelet", "result": 56.5, "unit": "%"}]}, {"smiles": "CCC(C)Oc1c(Cl)c(C)c(C=O)c(O)c1C/C=C(C)/C=C/C1(C)C(C)CCC(=O)C1C", "note": "(stereo not drawn) [4-O-sec-butylascochlorin]", "values": [{"measurement": "Cholesterol in serum", "setting": "Cholesterol in serum", "result": 89.1, "unit": "mg/dL"}, {"measurement": "Aggregation Inhibition Ratio", "setting": "blood platelet", "result": 51.1, "unit": "%"}]}, {"smiles": "CC(/C=C/C1(C)C(C)CCC(=O)C1C)=C\\Cc1c(O)c(C=O)c(C)c(Cl)c1OC(C)(C)C", "note": "(stereo not drawn) [4-O-tert-butylascochlorin]", "values": [{"measurement": "Cholesterol in serum", "setting": "Cholesterol in serum", "result": 82.7, "unit": "mg/dL"}, {"measurement": "Aggregation Inhibition Ratio", "setting": "blood platelet", "result": 60.5, "unit": "%"}]}, {"smiles": "CC(=O)Oc1ccccc1C(=O)O", "note": "[acetyl salicylic acid, reference compound]", "values": [{"measurement": "Aggregation Inhibition Ratio", "setting": "blood platelet", "result": 73.1, "unit": "%"}]}, {"smiles": "CCOC(=O)C(C)(C)Oc1ccc(Cl)cc1", "note": "[ethyl-α-(p-chlorophenoxy) isobutylate, reference compound]", "values": [{"measurement": "Cholesterol in serum", "setting": "Cholesterol in serum", "result": 103.8, "unit": "mg/dL"}, {"measurement": "Serum Cholesterol, increasing or reducing ratio based on the control", "setting": "Serum Lipid; 45.0 mg/kg oral", "result": "+7.9"}, {"measurement": "Serum Free fatty acid, increasing or reducing ratio based on the control", "setting": "Serum Lipid; 45.0 mg/kg oral", "result": -10.1}, {"measurement": "Serum Phospholipid, increasing or reducing ratio based on the control", "setting": "Serum Lipid; 45.0 mg/kg oral", "result": -0.7}, {"measurement": "Serum Triglyceride, increasing or reducing ratio based on the control", "setting": "Serum Lipid; 45.0 mg/kg oral", "result": -9.2}, {"measurement": "Serum β-Lipoprotein, increasing or reducing ratio based on the control", "setting": "Serum Lipid; 45.0 mg/kg oral", "result": -3.7}, {"measurement": "Serum Cholesterol", "setting": "Serum Lipid; [1]", "result": "115.3 ± 5.5", "unit": "mg/dL"}, {"measurement": "Serum Free fatty acid", "setting": "Serum Lipid; [1]", "result": "45.2±1.6", "unit": "μ eq./dl"}, {"measurement": "Serum Phospholipid", "setting": "Serum Lipid; [1]", "result": "135.9 ± 13.6", "unit": "mg/dL"}, {"measurement": "Serum Triglyceride", "setting": "Serum Lipid; [1]", "result": "72.1 ± 4.4", "unit": "mg/dL"}, {"measurement": "Serum β-Lipoprotein", "setting": "Serum Lipid; [1]", "result": "738 ± 46", "unit": "mg/dL"}, {"measurement": "lowering of lipids in serum, liver and aorta (such effects)", "setting": "Serum Lipid; oral, groups of Tables IV and V", "result": "such effects were not observed"}, {"measurement": "Cholesterol in Liver, increasing or reducing ratio based on the control", "setting": "Lipid in liver and aorta", "result": "+20.6"}, {"measurement": "Cholesterol in Tunica intima of aorta abdominalis, increasing or reducing ratio based on the control", "setting": "Lipid in liver and aorta", "result": -14.7}, {"measurement": "Phospholipid in Liver, increasing or reducing ratio based on the control", "setting": "Lipid in liver and aorta", "result": "+13.2"}, {"measurement": "Triglyceride in Liver, increasing or reducing ratio based on the control", "setting": "Lipid in liver and aorta", "result": "+10.7"}, {"measurement": "Cholesterol in Liver", "setting": "Lipid in liver and aorta; average ± standard error", "result": "41.0 ± 4.5", "unit": "mg/g"}, {"measurement": "Phospholipid in Liver", "setting": "Lipid in liver and aorta; average ± standard error", "result": "79.5 ± 3.1", "unit": "mg/g"}, {"measurement": "Triglyceride in Liver", "setting": "Lipid in liver and aorta; average ± standard error", "result": "24.2 ± 2.2", "unit": "mg/g"}, {"measurement": "Aggregation Inhibition Ratio", "setting": "blood platelet", "result": 0, "unit": "%"}]}]}
